Test system: Bifidobacterium sp. strain JCM7042
Test: Effect of components added to TOS liquid medium on bifidobacteria growth and 7-cis-C16:1 production
Format: cell-based
Settings: component added to TOS liquid medium, amount per liter (0.1 to 10 g); compared to control without the component; 37° C.

Compound	7-cis-C16:1 Production	Bifidobacteria Growth
O=C([O-])[O-].[Ca+2] [Calcium Carbonate]	Fair	Excellent
Cl.N[C@@H](CS)C(=O)O.O [L-Cysteine Hydrochloride (1-hydrate)]	Excellent	Excellent
CCCCCCCCCCCC(=O)O [Lauric Acid (free form), Lauric Acid]	Poor	Poor
CCCCCCCCCCCC(=O)OC [Lauric Acid Methyl Ester]	Good	Good
CCCCCCCCCCCCCC(=O)O [Myristic Acid (free form), Myristic Acid]	Poor	Poor
CCCCCCCCCCCCCC(=O)OC [Myristic Acid Methyl Ester]	Poor	Poor
CCCCCCCC/C=C\CCCCCCCC(=O)O [Oleic Acid (free form), Oleic Acid]	Poor	Fair
CCCCCCCC/C=C\CCCCCCCC(=O)OC [Oleic Acid Methyl Ester]	Good	Excellent
O=C(O)CC(=O)C(=O)O [Oxaloacetic Acid]	Poor	Good
CCCCCCCCCCCCCCCC(=O)O [Palmitic Acid (free form), Palmitic Acid]	Poor	Poor
CCCCCCCCCCCCCCCC(=O)OC [Palmitic Acid Methyl Ester]	Poor	Poor
O=C([O-])[O-].[K+].[K+] [Potassium Carbonate]	Poor	Poor
O=C([O-])O.[K+] [Potassium Hydrogen Carbonate]	Fair	Poor
O=C([O-])[O-].[Na+].[Na+] [Sodium Carbonate]	Poor	Poor
O=C([O-])O.[Na+] [Sodium Hydrogen Carbonate]	Poor	Poor
Anisidine	Good	Good
Polysorbate 80	Poor	Good
Tergitol NP40	Good	Good
Triton X-100	Poor	Poor

Test system: Bifidobacterium sp. strain JCM7042
Test: L-cysteine concentration in MRS liquid medium, production of 7-cis-hexadecenoic acid
Format: cell-based
Settings: 5.0 g/L in MRS liquid medium
Experimental: MRS media with various amounts of L-cysteine added were prepared to investigate their effect on the production of 7-cis-hexadecenoic acid by bifidobacteria. Specifically, the test was performed as follows. Bifidobacterium sp. strain JCM7042 (strain JCM7042) was used as the Bifidobacterium. L-cysteine hydrochloride monohydrate was added at 0.001 g/L, 0.01 g/L, 0.1 g/L, 0.5 g/L, 1.0 g/L, and 5.0 g/L to the MRS liquid medium with the composition shown in Table 1 to prepare L-cysteine-containing MRS liquid media. These MRS liquid media with L-cysteine and the control MRS liquid medium (without added L-cysteine) were cultured in the same manner as in Example 1. Using the same methods and conditions as in Example 1, the 7-cis-hexadecenoic acid in each culture solution was quantified by gas chromatography (GC) analysis.

Compound	production of 7-cis-hexadecenoic acid
Cl.N[C@@H](CS)C(=O)O.O [L-Cysteine Hydrochloride (1-hydrate)]	greatly inhibited

Test system: Staphylococcus aureus
Test: not given
Settings: 7-cis-hexadecenoic acid itself; cited from earlier work

Compound	MIC against Staphylococcus aureus
CCCCCCCC/C=C\CCCCCC(=O)O [7-cis-hexadecenoic acid]	about 3 μg/mL

Test system: Staphylococcus aureus
Test: not given
Settings: reported in Non Patent Literature 1; cited from earlier work

Compound	selective antibacterial activity (S. aureus versus S. epidermidis)	antibacterial activity against Staphylococcus aureus
CCCCCCCC/C=C\CCCCCC(=O)O [7-cis-hexadecenoic acid]	selective antibacterial activity similar to sapienic acid	–
CCCCCC/C=C\CCCCCCCC(=O)O [palmitoleic acid]	selective antibacterial activity similar to sapienic acid	–
CCCCCCCCC/C=C\CCCCC(=O)O [sapienic acid]	–	strong antibacterial activity

Test system: Staphylococcus epidermidis
Test: not given
Settings: reported in Non Patent Literature 1; cited from earlier work

Compound	antibacterial activity against Staphylococcus epidermidis
CCCCCCCCC/C=C\CCCCC(=O)O [sapienic acid]	not against Staphylococcus epidermidis

— US20230383320A1, “METHOD FOR PRODUCING MONOUNSATURATED FATTY ACID HAVING 16 CARBON ATOMS” (SHIZUOKA PREFECTURAL UNIVERSITY CORPORATION, priority 2022, published 2023)
